The text below walks through data of patent US9315829B2, “Methods for intracellular delivery of nucleic acids” (UNIVERSITE PARIS DESCARTES, priority 2010, dated 2016).

One test concerns ciliary muscle. Put plainly: Luciferase expression in aqueous humor after transfection of the ciliary muscle with naked pGLuc (Example 5). It is filed as in vivo, rat. Conditions: for Luciferase (cps) Mean ± sem, level of expression in aqueous humor: pre-treatment 20 mg/ml (10 μl) 45 min before 15 μg pGLuc, day 7, background 99.3 ± 1.5, water 103.5 ± 3.2. The procedure:
FIG. 6: Illustrates the intracellular delivery of naked plasmids to a smooth muscle, the ciliary muscle, and subsequent gene expression in ocular media. Intramuscular pre-injection of triamcinolone acetonide (TA) or anecortave acetate (AA) at 20 mg/ml (10 μl) was carried out 45 min before intramuscular injection of the naked plasmid pGLuc (15 μg in 10 μl in NaCl 0.45%). No transfection or water instead of corticosteroid was used as control. Luminescence is expressed in counts/s (cps). The results are expressed as the mean±sem of 4 to 6 independent experiments.
To reach the ciliary muscle located below the sclera posterior to the limbus, the intra ciliary muscle injection was carried out through a tunneled corneal incision. When the needle had crossed the limbus, it was inserted slightly deeper for a distance of 1 mm and the solutions were injected.
Rats receiving injection of pGLuc in the ciliary muscle were sacrificed on day 7 after treatment. Intraocular fluids were collected on enucleated eyes, clarified by centrifugation and the supernatants stored at −20° C. until tested.
(§1) The luciferase activity was assessed on 10 μl of sample (tissue lysate supernatant or ocular fluid) placed in a white 96 wells plate.
(§2) The detector was a Wallac Victor luminometer (EG&G Wallac, Evry, France) which adds 50 μl of luciferase assay substrate or Gaussia luciferase assay substrate (Promega) to the sample (tissue lysate supernatant or ocular fluid respectively) and integrates the light produced by the sample during 10 s. Results are given for the whole sample in counts per second (cps) or in cps/ml/mg of protein.
Fifteen μg of naked pGLuc in 10 μl in NaCl 0.45% was injected in the ciliary muscle of one eye of anaesthetized rats (the contra lateral eye was used as control).
The plasmid injection was preceded 45 min before by intramuscular injection of 10 μl of triamcinolone acetonide (TA, 20 mg/ml) or anecortave acetate (AA, 20 mg/ml), a synthetic corticosteroid.
No injection and pre-injection with water were performed as controls.

A further test concerns tibialis anterior muscle. In words: Luciferase expression in tibialis anterior muscle after injection of naked pVAX2-Luc (Example 6). It is filed as in vivo, mouse. Conditions: water control 6.749.
Another test concerns neuroretina. In words: IVT injection of naked pVAX2-Luc followed by gas injection and/or ET, luciferase in neuroretina (Example 1). In kind it is in vivo, rat. The conditions noted are these: IVT pre-injection 30 min before plasmid, Indocyanin Green 2.5 mg/ml, Polysorbate 80 0.2 mg/ml. Here is the method:
FIG. 2: Illustrates the intracellular delivery of naked plasmids and gene expression in the neuroretina (FIG. 2A) and the RPE-choroid complex (FIG. 2B) of IVT pre-injection of 10 μl of the corticosteroid pharmaceutical specialty KENACORT® at 20 mg/ml (triamcinolone acetonide (TA) as active agent and polysorbate 80 as excipient), Indocyanine Green at 2.5 mg/ml or Polysorbate 80 at 0.2 mg/ml 30 min before IVT injection of the plasmid pVAX2-Luc (30 μg in 10 μl in NaCl 0.45%), followed by gas injection or ET application [8×(80V; 20 ms; 5 Hz)] or combination of both immediately upon IVT injection of the plasmid. Luminescence is expressed in counts/s (cps). The results are expressed as the mean±sem of 4 independent experiments. […]
The luciferase activity was assessed on 10 μl of sample (tissue lysate supernatant or ocular fluid) placed in a white 96 wells plate. […]
The effect of various chemical agents on the RPE-choroid complex gases injection or electrotransfer-induced intracellular delivery of the naked plasmid pVAX2-Luc and gene expression of the luciferase in neuroretina was evaluated. […]
(§3) 7 days after the treatment the animals were sacrificed, the eyes were enucleated and dissected under an optical microscope to isolate the neuroretina and the RPE-choroid complex and the luminescence of the luciferase was measured.

Another test relates to RPE-choroid complex. Put plainly: IVT injection of naked pVAX2-Luc followed by gas injection and/or ET, luciferase in RPE-choroid complex (Example 1). In kind it is in vivo, rat. The conditions noted are these: IVT pre-injection 30 min before plasmid, Indocyanin Green 2.5 mg/ml, Polysorbate 80 0.2 mg/ml. The procedure: FIG. 2: Illustrates the intracellular delivery of naked plasmids and gene expression in the neuroretina (FIG. 2A) and the RPE-choroid complex (FIG. 2B) of IVT pre-injection of 10 μl of the corticosteroid pharmaceutical specialty KENACORT® at 20 mg/ml (triamcinolone acetonide (TA) as active agent and polysorbate 80 as excipient), Indocyanine Green at 2.5 mg/ml or Polysorbate 80 at 0.2 mg/ml 30 min before IVT injection of the plasmid pVAX2-Luc (30 μg in 10 μl in NaCl 0.45%), followed by gas injection or ET application [8×(80V; 20 ms; 5 Hz)] or combination of both immediately upon IVT injection of the plasmid. Luminescence is expressed in counts/s (cps). The results are expressed as the mean±sem of 4 independent experiments.
Rats receiving intravitreal injection of pVAX2-luc were sacrificed on day 7 after treatment. The eyes were enucleated and dissected under an operating microscope, the neuroretina and RPE/choroid complex removed, snap frozen in liquid nitrogen and kept at −80° C. until tested.
Tissue samples were then homogenized in 0.3 ml (rat neuroretina and RPE/choroid complex) or 1.0 ml (mouse tibialis anterior muscle) of cell culture lysis reagent (Promega, Charbonniere, France) supplemented with protease inhibitor cocktail (Boehringer, Mannheim, Germany) (one tablet for 50 ml). After centrifugation 10 min at 15 000 g and 4° C., tissue lysate supernatant was collected.
as §1, §2
The effect of various chemical agents on the RPE-choroid complex gases injection or electrotransfer-induced intracellular delivery of the naked plasmid pVAX2-Luc and gene expression of the luciferase in neuroretina was evaluated.
Thirty μg of naked pVAX2-Luc in 10 μl in NaCl 0.45% was injected intravitreously in one eye of anaesthetized rats (the contra lateral eye was used as control) immediately followed by gas injection (C2F6 or SF6) or ET application [8×(80V; 20 ms; 5 Hz)] or combination of both. […]
as §3

[1] abbreviates: pre-treatment 2 mg/ml (30 μl) 30 min before plasmid.
Where [2] appears, read: pre-treatment 20 mg/ml (30 μl) 30 min before plasmid.

Description for tibialis anterior muscle: Luminescence is expressed in counts/s/ml/mg of protein (cps/ml/mg). The results are expressed as the mean±sem of 3 independent experiments. […] Intramuscular injection in the mouse tibialis anterior muscle was carried out with a 30 G needle on a 300 μl microfine syringe (BD Biosiences). Mouse receiving injection of pVAX2-luc in the tibialis anterior muscle were sacrificed on day 7 after treatment. The tibialis anterior muscle was removed, snap frozen in liquid nitrogen and kept at −80° C. until tested. Tissue samples were then homogenized in 0.3 ml (rat neuroretina and RPE/choroid complex) or 1.0 ml (mouse tibialis anterior muscle) of cell culture lysis reagent (Promega, Charbonniere, France) supplemented with protease inhibitor cocktail (Boehringer, Mannheim, Germany) (one tablet for 50 ml). After centrifugation 10 min at 15 000 g and 4° C., tissue lysate supernatant was collected. The luciferase activity was assessed on 10 μl of sample (tissue lysate supernatant or ocular fluid) placed in a white 96 wells plate. The detector was a Wallac Victor luminometer (EG&G Wallac, Evry, France) which adds 50 μl of luciferase assay substrate or Gaussia luciferase assay substrate (Promega) to the sample (tissue lysate supernatant or ocular fluid respectively) and integrates the light produced by the sample during 10 s. Results are given for the whole sample in counts per second (cps) or in cps/ml/mg of protein. One hundred μg of pVAX1-LacZ or thirty μg of naked pVAX2-Luc in 100 or 30 μl in NaCl 0.45% were, respectively, injected into the tibialis anterior muscle of rats or into the tibialis anterior muscle of mice. In the mice, the plasmid injection was preceded 30 min before by intramuscular injection of 30 μl of triamcinolone acetonide (TA) or dexamethasone (DEX) at 2 or 20 mg/ml, or soluble DEX at 4 mg/ml. Pre-injection with water was performed as control.

With `CC(=O)OCC(=O)[C@@]1(O)CC[C@H]2[C@@H]3CCC4=CC(=O)CC[C@]4(C)C3=CC[C@@]21C` [AA, anecortave acetate], in the test with ciliary muscle (pre-injection 20 mg/ml (10 μl) 45 min before 15 μg pGLuc), the “level of expression of Luciferase in the aqueous humor compared to naked plasmid alone” value is recorded as “dramatically improve”. In the test with ciliary muscle, the “Luciferase (cps) Mean ± sem, level of expression in aqueous humor” value amounted to 122.5 ± 7.2 cps.

With `C[C@@H]1C[C@H]2[C@@H]3CCC4=CC(=O)C=C[C@]4(C)[C@@]3(F)[C@@H](O)C[C@]2(C)[C@@]1(O)C(=O)CO` [DEX, dexamethasone], the “Luciferase (cps) means (10^6)” value is reported as 8.526 10^6 cps in the test on tibialis anterior muscle (setting [1]) and 30.13 10^6 cps in the test on tibialis anterior muscle (setting [2]).

As for `CC1(C)C(/C=C/C=C/C=C/C=C2\N(CCCCS(=O)(=O)O)c3ccc4ccccc4c3C2(C)C)=[N+](CCCCS(=O)(=O)[O-])c2ccc3ccccc3c21` [Indocyanin Green, indocyanine green], the “efficiency in improving transfection, by contrast with KENACORT” value with neuroretina was “less efficient”. In the test with RPE-choroid complex, the “improvement of the efficacy of gases injection, by contrast with KENACORT” value is recorded as “less efficient” and the “improvement of the efficiency of ET” value is reported as “improved, in a certain extent”.

For `CC1(C)O[C@@H]2C[C@H]3[C@@H]4CCC5=CC(=O)C=C[C@]5(C)[C@@]4(F)[C@@H](O)C[C@]3(C)[C@]2(C(=O)CO)O1` [TA, triamcinolone acetonide], the “Luciferase (cps) Mean ± sem, level of expression in aqueous humor” value with ciliary muscle is 122.3 ± 6.8 cps. Besides, the figures for the “Luciferase (cps) means (10^6)” value in the test on tibialis anterior muscle (setting [1]) and with tibialis anterior muscle (setting [2]) were 6.849 10^6 cps and 6.431 10^6 cps, respectively.

Consider polysorbate 80, for which the “efficiency in improving transfection, by contrast with KENACORT” value in the test with neuroretina is reported as “less efficient”. For the same molecule, in the test on RPE-choroid complex, the “improvement of the efficacy of gases injection, by contrast with KENACORT” value was “less efficient” and the “improvement of the efficiency of ET” value is reported as “improved, in a certain extent”.
